Measurements from paper PMC4222822, “Discovery and Characterization of a Potent and Selective Inhibitor of Aedes aegypti Inward Rectifier Potassium Channels” (PLoS ONE, 2014).
Like-named read-outs stand apart in the source and are kept apart here.

Columns and labels:
AeKir1 = AeKir1 (Aedes aegypti, UniProt L0EQS9); assay: Tl+ flux assay in T-REx-HEK293-AeKir1 cells; assay type: cell-based; conditions: for IC50: read-out: IC50±SEM
Description: Tl^+ flux assays were performed essentially as described previously, [18], [19]. Briefly, stably transfected T-Rex-HEK-293 cells expressing AeKir1 channels were cultured overnight in 384-well plates (20,000 cells/20 µL/well black-walled, clear-bottomed BD PureCoat amine-coated plates (BD, Bedford, MA) with a plating media containing DMEM, 10% dialyzed FBS and 1 µg/mL tetracycline. The next day, the cell culture medium was replaced with a dye-loading solution containing assay buffer (Hanks Balanced Salt Solution with 20 mM HEPES, pH 7.3), 0.01% (w/v) Pluronic F-127 (Life Technologies, Carlsbad, CA), and 1.2 µM of the thallium-sensitive dye Thallos-AM (TEFlabs, Austin, TX). Following 1 hr incubation at room temperature, the dye-loading solution was washed from the plates and replaced with 20 µL/well of assay buffer. The plates were transferred to a Hamamatsu Functional Drug Screening System 6000 (FDSS6000; Hamamatsu, Hamamatsu (or Bridgewater, NJ), Japan) where 20 µL/well of test compounds in assay buffer (as prepared below) were added and allowed to incubate with the cells for 20 min. After the incubation period, a baseline recording was collected at 1 Hz for 10 s (excitation 470±20 nm, emission 540±30 nm) followed by a Tl^+ stimulus buffer addition (10 µL/well) and data collection for an additional 4 min. The Tl^+ stimulus buffer contains in (mM) 125 NaHCO3, 1.8 CaSO4, 1 MgSO4, 5 glucose, 12 Tl2SO4, 10 HEPES, pH 7.4. For Tl^+ flux assays on the mammalian channels Kir2.x, Kir4.1 and Kir6.2/SUR1 expressing cells, the Tl^+ stimulus buffer contained 1.8 mM Tl2SO4. Also, Tl^+ flux assays on Kir3.1/3.2/mGlu8 expressing cell, required addition of an EC80 concentration of glutamate (Sigma-Aldrich, St. Louis, MO) with the Tl^+ stimulus buffer. The test compounds were transferred to daughter polypropylene 384-well plates (Greiner Bio-One, Monroe, NC) using an Echo555 liquid handler (Labcyte, Sunnyvale, CA), and then diluted into assay buffer to generate a 2X stock in 0.6% DMSO (0.3% final). For Tl^+ flux assays on Kir6.2/SUR1 expressing cells, test compounds were diluted in assay buffer containing diazoxide (250 µM final) to induce channel activation. Concentration-response curves (CRCs) were generated by screening compounds at 3-fold dilution series in 4-point (1 µM–30 µM) or 11-point (1 nM–30 µM) CRCs. Tl^+ flux data were analyzed as previously described, [21], [22] using a combination of Excel (Microsoft Corp, Redmond, WA) with XLfit add-in (IDBS, Guildford, Surrey, UK) and OriginPro (OriginLab, Northampton, MA) software. Raw data were opened in Excel and each data point in a given trace was divided by the first data point from that trace (static ratio) followed by subtraction of data points from control traces generated in the presence of vehicle controls. The slope of the fluorescence increase beginning 5 s after Tl^+ addition and ending 15 s after Tl^+ addition was calculated. To compare the effect of DMSO on AeKir1-mediated Tl^+ flux, a one-way ANOVA was performed with a Tukey's multiple comparison test. Prism software (GraphPad Software) was used to generate CRC from Tl^+ flux. Half-inhibition concentration (IC50) values were calculated from fits using a four parameter logistic equation.

[1] = system: adult female mosquitoes (A. aegypti); assay: Mosquito excretion experiments (excretory capacity); assay type: in vivo, Aedes aegypti; conditions: probenecid 3.4 nmol per mosquito in 900 nL vehicle, 1 h after injection; mean ±SEM
Description: The Aedes aegypti mosquito colony used in the present study is identical to that described previously. As before, only adult female mosquitoes 3–10 days post emergence were utilized for experiments.
The excretory capacity of mosquitoes was measured as described. In brief, after anesthetizing mosquitoes on ice, their hemolymph was injected as described above with 900 nL of a K^+-PBS vehicle containing 1.15% DMSO, 0.077% β-cyclodextrin, and 0.008% Solutol, or the vehicle containing VU625 (0.77 mM) to deliver a dose of 690 pmol of VU625 per mosquito. In experiments where probenecid was used, the vehicle was supplemented with water- soluble probenecid […] to deliver a dose of 3.4 nmol of probenecid per mosquito. After injection, the mosquitoes were placed immediately in a graduated, packed-cell volume tube (MidSci, St. Louis, MO; 5 mosquitoes per tube) and held at 28°C. The volume of urine excreted at 60 min post injection was measured as described previously, and all mosquitoes were confirmed to be alive at the end of 60 min period. For each treatment, 6–18 independent trials of 5 mosquitoes per treatment were performed.
Prism (GraphPad Software) was used to generate a dose-response curve for the toxicity of VU625; the doses (x-axis) were first log transformed and then the mortality data was normalized using Prism, where the smallest value and largest values in a data set equal ‘0%’ and ‘100%’, respectively. The data were then fitted using a ‘biphasic’ algorithm (<100 constraint) to calculate potencies (ED25 and ED75 values). To compare 1) the toxic effects among the vehicle, probenecid, VU625, and VU625 + probenecid treatments, and 2) the excretory capacity among the vehicle, probenecid, VU625, and VU625 + probenecid treatments, one-way ANOVAs were performed with Newman-Keuls posttests.

[2] = system: adult female mosquitoes (A. aegypti); set-up: method as in PMID 23734226, PMID 24959745; conditions: after loading hemolymph with 900 nl of a PBS vehicle; cited from earlier work
mosquitoes = assay: Toxicity when applied to the cuticle (topical); assay type: in vivo; conditions: Piermarini, unpublished observations
AeKir2B = AeKir2B (Aedes aegypti, UniProt L0EQ40); set-up: method as in PMID 24959745; conditions: cited from earlier work
Sequence of AeKir2B (L0EQ40 entry or part of it): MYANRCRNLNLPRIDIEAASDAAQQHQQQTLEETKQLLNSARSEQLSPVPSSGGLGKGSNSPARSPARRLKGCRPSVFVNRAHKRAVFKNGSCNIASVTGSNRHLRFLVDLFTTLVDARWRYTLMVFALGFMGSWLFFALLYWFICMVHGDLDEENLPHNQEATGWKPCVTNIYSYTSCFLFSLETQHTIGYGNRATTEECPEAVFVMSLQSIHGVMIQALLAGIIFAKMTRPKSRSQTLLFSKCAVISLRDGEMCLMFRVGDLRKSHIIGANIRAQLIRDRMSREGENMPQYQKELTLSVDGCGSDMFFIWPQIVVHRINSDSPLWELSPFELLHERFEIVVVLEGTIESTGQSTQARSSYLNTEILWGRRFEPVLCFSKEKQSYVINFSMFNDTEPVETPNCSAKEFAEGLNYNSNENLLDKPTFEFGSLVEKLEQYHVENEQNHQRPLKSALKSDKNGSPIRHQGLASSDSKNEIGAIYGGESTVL

[3] = system: adult female mosquitoes (A. aegypti); set-up: method as in PMID 23734226, PMID 24959745; conditions: within 24 h; cited from earlier work
[4] = Table 2, southern amide SAR, 11-point CRCs on AeKir1 in Tl+ flux, triplicate on two separate days
[5] = Table 3, central core SAR, 11-point CRCs on AeKir1 in Tl+ flux, triplicate on two separate days

Sequence of AeKir1 (L0EQS9 entry or part of it): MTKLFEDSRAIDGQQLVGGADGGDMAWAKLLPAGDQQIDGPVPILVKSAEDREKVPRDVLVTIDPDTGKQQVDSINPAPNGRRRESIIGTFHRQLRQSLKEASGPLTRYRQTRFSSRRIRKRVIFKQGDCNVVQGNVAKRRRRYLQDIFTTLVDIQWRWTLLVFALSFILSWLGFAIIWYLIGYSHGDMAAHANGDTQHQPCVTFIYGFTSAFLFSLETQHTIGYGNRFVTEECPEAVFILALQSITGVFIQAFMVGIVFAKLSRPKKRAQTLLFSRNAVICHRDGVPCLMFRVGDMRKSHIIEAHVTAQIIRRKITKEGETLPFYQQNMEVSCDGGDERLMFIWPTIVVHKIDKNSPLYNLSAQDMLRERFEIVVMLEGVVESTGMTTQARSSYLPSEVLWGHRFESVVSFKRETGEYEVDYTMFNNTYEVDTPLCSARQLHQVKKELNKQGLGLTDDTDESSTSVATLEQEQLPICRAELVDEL

Row | SMILES | IC50 (AeKir1; [4]) [nM] | IC50 (AeKir1; [5]) [nM] | other results
1 | CCCN(CCC)S(=O)(=O)c1ccc(C(=O)O)cc1 [probenecid, reference compound] | – | – | excretory capacity (urine excreted) [1]: 467.8±33.53 nL/female
2 | COc1cccc(NS(=O)(=O)c2ccc3c(ccn3C)c2)c1 [4a] | – | 550 ± 80 | –
3 | COc1cccc(NS(=O)(=O)c2ccc3c(c2)OCC(=O)N3)c1 [4d] | – | > 30000 | –
4 | COc1cccc(NS(=O)(=O)c2ccc3c(c2)CC(C)N3C(=O)c2cccc(F)c2)c1 (stereo not shown) [3c] | 5200 ± 400 | – | –
5 | COc1cccc(NS(=O)(=O)c2ccc3c(c2)cc(C)n3C)c1 [4b] | – | 970 ± 100 | –
6 | O=[N+]([O-])c1ccc(CN2CCOCCOCCN(Cc3ccc([N+](=O)[O-])cc3)CCOCC2)cc1 [VU590] | – | – | effect on excretory capacity [2]: decrease in the excretory capacity; toxicity when applied to the cuticle (mosquitoes): lack of topical activity; effect on AeKir2B (AeKir2B): selective inhibitor of AeKir1 over AeKir2B; effect of hemolymph injection on mosquitoes [3]: incapacitation and/or death within 24 h
7 | COc1cccc(NS(=O)(=O)c2ccc3c(c2)CC(C)N3S(=O)(=O)c2ccccc2)c1 (stereo not shown) [3h] | 3290 ± 890 | – | IC50±SEM (AeKir1; [4]): less activity
8 | COc1cccc(NS(=O)(=O)c2ccc3c(c2)CC(C)N3C(=O)c2ccccc2C)c1 (stereo not shown) [3d] | 4410 ± 1110 | – | –
9 | COc1cccc(NS(=O)(=O)c2ccc3c(c2)CC(C)N3C(=O)C(F)(F)F)c1 (stereo not shown) [3b] | 580 ± 40 | – | –
10 | Cc1ccc(OCC(O)Cn2c(=N)n(Cc3ccccc3)c3ccccc32)cc1 (stereo not shown) [VU573] | – | – | effect on excretory capacity [2]: decrease in the excretory capacity; toxicity when applied to the cuticle (mosquitoes): lack of topical activity; effect on AeKir2B (AeKir2B): activates AeKir2B; effect of hemolymph injection on mosquitoes [3]: incapacitation and/or death within 24 h

Now from value to compound, other results behind:

Row | IC50 (AeKir1; [4]) [nM] | IC50 (AeKir1; [5]) [nM] | SMILES | other results
11 | 2090 ± 490 | – | COc1cccc(NS(=O)(=O)c2ccc3c(c2)CC(C)N3C(=O)N(C)C)c1 (stereo not shown) [3i] | –
12 | – | 1150 ± 50 | COc1cccc(NS(=O)(=O)c2ccc3c(c2)CCN3C(C)=O)c1 [4f] | loss of potency relative to VU625 (AeKir1; AeKir1 Tl+ flux): ~3 fold
13 | 820 ± 480 | – | COc1cccc(NS(=O)(=O)c2ccc3c(c2)CC(C)N3S(=O)(=O)C(C)(C)C)c1 (stereo not shown) [3l] | –
14 | 4400 ± 500 | – | COc1cccc(NS(=O)(=O)c2ccc3c(c2)CC(C)N3C(=O)c2ccccn2)c1 (stereo not shown) [3g] | –
15 | – | > 30000 | COc1cccc(NS(=O)(=O)c2ccc3c(c2)CC(=O)N3C)c1 [4e] | –
16 | > 30000 | – | COc1cccc(NS(=O)(=O)c2ccc3c(c2)CC(C)N3C(=O)c2ccc(C)cc2)c1 (stereo not shown) [3f] | –
17 | 760 | – | COc1cccc(NS(=O)(=O)c2ccc3c(c2)CC(C)N3S(=O)(=O)C2CC2)c1 (stereo not shown) [3k] | –
18 | 2820 ± 480 | – | COc1cccc(NS(=O)(=O)c2ccc3c(c2)CC(C)N3S(C)(=O)=O)c1 (stereo not shown) [3j] | –
19 | – | > 30000 | COc1cccc(NS(=O)(=O)c2ccc3c(c2)CCC(=O)N3)c1 [4c] | –
20 | 3870 ± 1970 | – | COc1cccc(NS(=O)(=O)c2ccc3c(c2)CC(C)N3C(=O)c2cccc(C)c2)c1 (stereo not shown) [3e] | –
